# Experimental data published in patent US20230192617A1, “AZABICYCLIC(THIO)AMIDES AS FUNGICIDAL COMPOUNDS” (Bayer CropScience Aktiengesellschaft, priority 2020, published 2023).
# Tests used:
# [1] = Measurement of Log P values by HPLC on reversed phase columns (EEC directive 79/831 Annex V.A8); format: physicochemical; details: reversed phase HPLC column, method [a]: LC-UV, acidic range, 0.1% formic acid in water and acetonitrile as eluent
# Method in brief: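 Log P derived from retention on reversed-phase columns (EEC directive 79/831 Annex V.A8), LC-UV, acetonitrile gradient 10% to 95% against water containing 0.1% formic acid, 0.001 M ammonium acetate, or 0.1% phosphoric acid; several values per method separated by "+".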
# Botrytis cinerea [2] = test: B-11. Botrytis cinerea in vitro cell test; format: cell-based; details: 144 h, 20 ppm of active ingredient, 6 days incubation, liquid culture, absorbance, read-out: efficacy (inhibition of fungal growth)
# Method in brief: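 B. cinerea spores were grown in liquid culture with compound (DMSO ≤1% final). Mycelium growth was measured spectrometrically after 6 days, with inhibition taken as absorbance relative to untreated control wells.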
# [3] = test system: Colletotrichum lindemuthianum; test: B-8. Colletotrichum lindemuthianum in vitro cell test; format: cell-based; details: 144 h, 20 ppm of active ingredient, 6 days incubation, liquid culture, absorbance, read-out: efficacy (inhibition of fungal growth)
# Method in brief: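 Liquid-culture germination/growth test: compounds in ≤1% final DMSO were added to spore-containing medium. Fungal growth was quantified spectrophotometrically after 6 days of incubation and expressed as inhibition versus untreated controls.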
# Alternaria brassicae = test: In vivo preventive test on Alternaria brassicae (leaf spot on radish or cabbage); details: 500 ppm of active ingredient, preventive spray on radish or cabbage, evaluated 3 to 4 days after inoculation, read-out: efficacy
# Method in brief: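 Protective spray on young radish or cabbage: actives in water diluted from DMSO/acetone/Tween 80, with solvent-only controls. Leaves were challenged after 24 h with a spore suspension, and plants were held at 100% RH, 20 °C for 3 to 4 days.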
# Alternaria alternata = Alternaria alternata in vitro cell test; format: cell-based; details: 120 h, 20 ppm of active ingredient, liquid culture, 5 days incubation, spectrometric measurement of mycelium growth, read-out: efficacy (inhibition of fungal growth)
# Method in brief: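 Spectrometric readout of mycelial growth after 5-day incubation gauged compound effects on spore germination and growth of A. alternata in liquid medium. Compounds were delivered in DMSO at ≤1% final. Absorbance was compared with untreated controls to give inhibition.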
# Pyrenophora teres [4] = test: B-10. Pyrenophora teres in vitro cell test; format: cell-based; details: 144 h, 20 ppm of active ingredient, 6 days incubation, liquid culture, absorbance, read-out: efficacy (inhibition of fungal growth)
# Method in brief: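 Liquid-culture assay on a P. teres spore suspension with compounds added to the medium from DMSO solutions, final DMSO ≤1%. Mycelium growth read spectrometrically after 6 days. Inhibition calculated from absorbance against untreated control wells.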
# Pyrenophora teres [5] = test: In vivo preventive test on Pyrenophora teres (net blotch on barley); details: 240 h, 500 ppm of active ingredient, preventive spray on barley, evaluated 10 days after inoculation, read-out: efficacy
# Description: (§1) B-3. In Vivo Preventive Test on Pyrenophora Teres (Net Blotch on Barley) [table] The active ingredients were made soluble and homogenized in a mixture of Dimethyl sulfoxide/Acetone/Tween® 80 and then diluted in water to the desired concentration. The young plants of barley were treated by spraying the active ingredient prepared as described above. Control plants were treated only with an aqueous solution of Acetone/Dimethyl sulfoxide/Tween® 80. After 24 hours, the plants were contaminated by spraying the leaves with an aqueous suspension of Pyrenophora teres spores. The contaminated barley plants were incubated for 48 hours at 20° C. and at 100% relative humidity and then for 8 days at 20° C. and at 70-80% relative humidity.
# [6] = test system: Colletotrichum lindemuthianum; test: In vivo preventive test on Colletotrichum lindemuthianum (leaf spot on bean); details: 168 h, 500 ppm of active ingredient, preventive spray on bean, evaluated 7 days after inoculation, read-out: efficacy
# Description: B-5. In Vivo Preventive Test on Colletotrichum lindemuthianum (Leaf Spot on Bean) [table] The active ingredients were made soluble and homogenized in a mixture of Dimethyl sulfoxide/Acetone/Tween® 80 and then diluted in water to the desired concentration. The young plants of bean were treated by spraying the active ingredient prepared as described above. Control plants were treated only with an aqueous solution of Acetone/Dimethyl sulfoxide/Tween® 80. After 24 hours, the plants were contaminated by spraying the leaves with an aqueous suspension of Colletotrichum lindemuthianum spores. The contaminated bean plants were incubated for 24 hours at 20° C. and at 100% relative humidity and then for 6 days at 20° C. and at 90% relative humidity.
# Botrytis cinerea [7] = test: In vivo preventive test on Botrytis cinerea (grey mould); details: 500 ppm of active ingredient, preventive spray on gherkin or cabbage, evaluated 4 to 5 days after inoculation, read-out: efficacy
# Method in brief: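 Preventive spray on cabbage or gherkin seedlings, with compound formulated in DMSO/acetone/Tween 80 and water-diluted, preceded spore inoculation by 24 hours. Cabbage was held 4 to 5 days at 20° C., 100% relative humidity; gherkin 4 to 5 days at 17° C., 90% relative humidity.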
# Sphaerotheca fuliginea = test: In vivo preventive test on Sphaerotheca fuliginea (powdery mildew on cucurbits); details: Podosphaera fuliginea, 192 h; 500 ppm of active ingredient; preventive spray on gherkin; evaluated 8 days after inoculation; read-out: efficacy
# Description: as §1, with “B-4. in vivo preventive test” for “B-3. In Vivo Preventive Test”, “Sphaerotheca fuliginea (powdery mildew” for “Pyrenophora Teres (Net Blotch”, “cucurbits)” for “Barley)”, “gherkin” for “barley”, “Sphaerotheca fuliginea” for “Pyrenophora teres”, “incubated” for “incubated for 48 hours at 20° C. and at 100% relative humidity and then”
Compound,chromatographic logP [1],inhibition at 20 ppm (Botrytis cinerea [2]) [%],inhibition at 20 ppm [3] [%],pest or weed control at 500 ppm (Alternaria brassicae) [%],inhibition at 20 ppm (Alternaria alternata) [%],inhibition at 20 ppm (Pyrenophora teres [4]) [%],pest or weed control at 500 ppm (Pyrenophora teres [5]) [%],pest or weed control at 500 ppm [6] [%],pest or weed control at 500 ppm (Botrytis cinerea [7]) [%],pest or weed control at 500 ppm (Sphaerotheca fuliginea) [%]
Cc1cc(Cl)ccc1[C@@H](F)CNC(=O)c1c(Oc2cccc(C(F)(F)F)c2)cnc2ccccc12 (racemic) [I-061],4.47,90 to 100,90 to 100,90 to 100,90 to 100,–,–,70 to 79,90 to 100,90 to 100
Cc1ccc(C(F)(F)CNC(=O)c2c(Oc3cccc(C(F)(F)F)c3)nnc3c2OCCO3)c(C)c1 [I-106],3.37,–,90 to 100,90 to 100,90 to 100,–,–,90 to 100,90 to 100,90 to 100
Cc1ccc([C@H](C)NC(=O)c2c(Oc3cccc(C(F)(F)F)c3)nnc3c2OCCO3)cc1 (racemic) [I-102],3.02,–,90 to 100,90 to 100,90 to 100,–,–,90 to 100,90 to 100,90 to 100
Cc1ccc([C@@H](F)CNC(=O)c2c(Oc3cccc(Cl)c3)nnc3ccccc23)c(Cl)c1 (racemic) [I-052],4.19,90 to 100,90 to 100,90 to 100,90 to 100,–,–,90 to 100,90 to 100,90 to 100

# Further lines, with some results ahead:
chromatographic logP [1],Compound,inhibition at 20 ppm (Botrytis cinerea [2]) [%],inhibition at 20 ppm [3] [%],pest or weed control at 500 ppm (Alternaria brassicae) [%],inhibition at 20 ppm (Alternaria alternata) [%],inhibition at 20 ppm (Pyrenophora teres [4]) [%],pest or weed control at 500 ppm (Pyrenophora teres [5]) [%],pest or weed control at 500 ppm [6] [%],pest or weed control at 500 ppm (Botrytis cinerea [7]) [%],pest or weed control at 500 ppm (Sphaerotheca fuliginea) [%]
4.15,Cc1ccc(C(F)(F)CNC(=O)c2c(Oc3cccc(C(F)(F)F)c3)nnc3cnccc23)c(C)c1 [I-162],90 to 100,90 to 100,90 to 100,90 to 100,90 to 100,70 to 79,–,–,–
3.6,O=C(NCC(F)(F)c1ccc(Br)cc1Cl)c1c(Oc2cccc(C(F)(F)F)c2)nnc2c1OCCO2 [I-103],–,90 to 100,80 to 89,90 to 100,–,–,80 to 89,90 to 100,90 to 100
4.62,C=Cc1ccc(C(F)(F)CNC(=O)c2c(Oc3cccc(C(F)(F)F)c3)nnc3ccccc23)c(Cl)c1 [I-064],90 to 100,90 to 100,90 to 100,90 to 100,–,80 to 89,–,90 to 100,–
3.37,"O=C(NCC(F)c1ccc(Cl)cc1Cl)c1c(Oc2cccc(C(F)(F)F)c2)nnc2c1OCCO2 (racemic) [I-101, N-[2-(2,4-dichlorophenyl)-2-fluoro-ethyl]-3-[3-(trifluoro-methyl)phenoxy]-6,7-dihydro-[1,4]dioxino[2,3-c]pyridazine-4-carboxamide]",–,80 to 89,90 to 100,90 to 100,–,–,90 to 100,90 to 100,90 to 100
3.18,Cc1ccc(C(F)(F)CNC(=O)c2c(Oc3cccc(C(F)(F)F)c3)nnc3c2CC(O)CC3)c(C)c1 (stereo not drawn) [I-117],90 to 100,90 to 100,70 to 79,90 to 100,–,–,90 to 100,90 to 100,90 to 100
